Values after ≈ are worked out from the molar mass of the structure shown.

By MIC is commonly meant the lowest concentration found to suppress growth. Low readings indicate inhibition by little substance, high ones a need for much substance.

Common to all, as to assay type: functional
Test [1] relates to Mycobacterium tuberculosis. Put plainly: Antimycobacterial activity against Mycobacterium tuberculosis CNCTC My 331/88 after 14 days by micromethod. To be noted: CNCTC My 331/88, 336 h.
Test [2] deals with Mycobacterium tuberculosis. Put plainly: Antimycobacterial activity against Mycobacterium tuberculosis CNCTC My 331/88 after 21 days by micromethod. To be noted: CNCTC My 331/88, 504 h.
The subject of test [3] is Mycobacterium avium. Put plainly: Antimycobacterial activity against Mycobacterium avium CNCTC My 330/88 after 14 days by micromethod. To be noted: CNCTC My 330/88, 336 h.
Test [4] has as its system Mycobacterium avium. Nature of the test: Antimycobacterial activity against Mycobacterium avium CNCTC My 330/88 after 21 days by micromethod. Particulars: CNCTC My 330/88, 504 h.
Test [5] concerns Mycobacterium kansasii. Nature of the test: Antimycobacterial activity against Mycobacterium kansasii CNCTC My 235/80 after 7 days by micromethod. To be noted: CNCTC My 235/80, 168 h.
Test [6] deals with Mycobacterium kansasii. Put plainly: Antimycobacterial activity against Mycobacterium kansasii CNCTC My 235/80 after 14 days by micromethod. Particulars: CNCTC My 235/80, 336 h.
Test [7] has as its system Mycobacterium kansasii. Nature of the test: Antimycobacterial activity against Mycobacterium kansasii CNCTC My 235/80 after 21 days by micromethod. To be noted: CNCTC My 235/80, 504 h.
Test [8] has as its system Mycobacterium kansasii. Nature of the test: Antimycobacterial activity against Mycobacterium kansasii 6509/96 after 7 days by micromethod. To be noted: 6509/96, 168 h.
In test [9] the test system is Mycobacterium kansasii. Put plainly: Antimycobacterial activity against Mycobacterium kansasii 6509/96 after 14 days by micromethod. Particulars: 6509/96, 336 h.
For test [10], the system named is Mycobacterium kansasii. Put plainly: Antimycobacterial activity against Mycobacterium kansasii 6509/96 after 21 days by micromethod. Particulars: 6509/96, 504 h.

With `O=[N+]([O-])c1ccc(CSc2nnnn2-c2ccccc2)c([N+](=O)[O-])c1`, the MIC in [1] turned out to be 8 µM (≈ 2.87 µg/mL); in test [2], 16 µM (≈ 5.73 µg/mL); against Mycobacterium avium [3] it was 32 µM (≈ 11.5 µg/mL); against Mycobacterium avium [4], 62 µM (≈ 22.2 µg/mL); in the test with Mycobacterium kansasii [5] it was 16 µM (≈ 5.73 µg/mL); against Mycobacterium kansasii [6], 62 µM (≈ 22.2 µg/mL). The MIC with Mycobacterium kansasii [7] was 62 µM (≈ 22.2 µg/mL); in the test on Mycobacterium kansasii [8], 8 µM (≈ 2.87 µg/mL); in the test with Mycobacterium kansasii [9] it was 32 µM (≈ 11.5 µg/mL); against Mycobacterium kansasii [10], 32 µM (≈ 11.5 µg/mL).
With `O=[N+]([O-])c1cc(CSCc2ccccc2)cc([N+](=O)[O-])c1`, the MIC in test [1] is 250 µM (≈ 76.1 µg/mL); in test [2], 250 µM (≈ 76.1 µg/mL); against Mycobacterium avium [3] it was 125 µM (≈ 38 µg/mL); in the test on Mycobacterium avium [4] it was 125 µM (≈ 38 µg/mL); against Mycobacterium kansasii [5], 125 µM (≈ 38 µg/mL); in the test with Mycobacterium kansasii [6], 125 µM (≈ 38 µg/mL). Besides, the MIC with Mycobacterium kansasii [7], against Mycobacterium kansasii [8], in the test with Mycobacterium kansasii [9] and with Mycobacterium kansasii [10] was 125 µM (≈ 38 µg/mL) each time.
As to `O=[N+]([O-])c1cc(CS(=O)(=O)c2nnnn2-c2ccccc2)cc([N+](=O)[O-])c1`, the MIC was found to be 8 µM (≈ 3.12 µg/mL) in test [1]; 8 µM (≈ 3.12 µg/mL) in test [2]; 62 µM (≈ 24.2 µg/mL) with Mycobacterium avium [3]; 125 µM (≈ 48.8 µg/mL) against Mycobacterium avium [4]; 32 µM (≈ 12.5 µg/mL) in the test on Mycobacterium kansasii [5]; 62 µM (≈ 24.2 µg/mL) in the test on Mycobacterium kansasii [6]. The MIC in the test on Mycobacterium kansasii [7] stood at 62 µM (≈ 24.2 µg/mL); in the test with Mycobacterium kansasii [8] it was 32 µM (≈ 12.5 µg/mL); in the test with Mycobacterium kansasii [9], 62 µM (≈ 24.2 µg/mL); against Mycobacterium kansasii [10], 62 µM (≈ 24.2 µg/mL).
Regarding `COc1ccc(-n2nnnc2[S+]([O-])Cc2cc([N+](=O)[O-])cc([N+](=O)[O-])c2)cc1` (stereo not given), the MIC in [1] was found to be 62 µM (≈ 25.1 µg/mL); in [2], 62 µM (≈ 25.1 µg/mL); with Mycobacterium avium [3], 250 µM (≈ 101 µg/mL); against Mycobacterium avium [4], 250 µM (≈ 101 µg/mL); against Mycobacterium kansasii [5] it was 62 µM (≈ 25.1 µg/mL); in the test on Mycobacterium kansasii [6], 125 µM (≈ 50.5 µg/mL). The MIC amounted to 125 µM (≈ 50.5 µg/mL) with Mycobacterium kansasii [7], 32 µM (≈ 12.9 µg/mL) with Mycobacterium kansasii [8], 125 µM (≈ 50.5 µg/mL) against Mycobacterium kansasii [9] and 125 µM (≈ 50.5 µg/mL) with Mycobacterium kansasii [10].
With `Cn1nnnc1SCc1cc([N+](=O)[O-])cc([N+](=O)[O-])c1`, the minimal inhibitory concentration (MIC) in test [1] turned out to be 4 µM (≈ 1.19 µg/mL); in test [2], 8 µM (≈ 2.37 µg/mL); in the test with Mycobacterium avium [3], 500 µM (≈ 148 µg/mL); in the test with Mycobacterium avium [4], 1000 µM (≈ 296 µg/mL); in the test on Mycobacterium kansasii [5], 4 µM (≈ 1.19 µg/mL); with Mycobacterium kansasii [6], 16 µM (≈ 4.74 µg/mL). The MIC in the test with Mycobacterium kansasii [7] was 32 µM (≈ 9.48 µg/mL); against Mycobacterium kansasii [8], 16 µM (≈ 4.74 µg/mL); in the test on Mycobacterium kansasii [9] it was 32 µM (≈ 9.48 µg/mL); against Mycobacterium kansasii [10], 32 µM (≈ 9.48 µg/mL).
Consider `COc1ccc(-n2nnnc2SCc2cc(N)cc([N+](=O)[O-])c2)cc1`, for which the MIC (in test [1]; in test [2]; with Mycobacterium avium [3]; with Mycobacterium avium [4]; against Mycobacterium kansasii [5]; against Mycobacterium kansasii [6]) was 250 µM (≈ 89.6 µg/mL) in each case. Besides, the MIC in the test on Mycobacterium kansasii [7], with Mycobacterium kansasii [8], with Mycobacterium kansasii [9] and in the test on Mycobacterium kansasii [10] was 250 µM (≈ 89.6 µg/mL) throughout.
Turning to `O=[N+]([O-])c1cc(CSc2nnnn2C23CC4CC(CC(C4)C2)C3)cc([N+](=O)[O-])c1`, the MIC was determined as 4 µM (≈ 1.67 µg/mL) in [1]; 4 µM (≈ 1.67 µg/mL) in test [2]; 500 µM (≈ 208 µg/mL) against Mycobacterium avium [3]; 500 µM (≈ 208 µg/mL) against Mycobacterium avium [4]; 4 µM (≈ 1.67 µg/mL) in the test on Mycobacterium kansasii [5]; 8 µM (≈ 3.33 µg/mL) in the test with Mycobacterium kansasii [6]. Further, the MIC against Mycobacterium kansasii [7] is 16 µM (≈ 6.66 µg/mL); in the test with Mycobacterium kansasii [8] it was 8 µM (≈ 3.33 µg/mL); in the test on Mycobacterium kansasii [9], 8 µM (≈ 3.33 µg/mL); against Mycobacterium kansasii [10] it was 8 µM (≈ 3.33 µg/mL).
In the case of `c1ccc(C[Se]c2nnnn2-c2ccccc2)cc1`, the MIC was determined as 125 µM (≈ 39.4 µg/mL) in [1]; 125 µM (≈ 39.4 µg/mL) in test [2]; 62 µM (≈ 19.5 µg/mL) against Mycobacterium avium [3]; 125 µM (≈ 39.4 µg/mL) with Mycobacterium avium [4]; 2 µM (≈ 0.63 µg/mL) against Mycobacterium kansasii [5]; 8 µM (≈ 2.52 µg/mL) against Mycobacterium kansasii [6]. The MIC stood at 16 µM (≈ 5.04 µg/mL) against Mycobacterium kansasii [7], 32 µM (≈ 10.1 µg/mL) in the test on Mycobacterium kansasii [8], 125 µM (≈ 39.4 µg/mL) with Mycobacterium kansasii [9] and 250 µM (≈ 78.8 µg/mL) against Mycobacterium kansasii [10].
`CSCc1cc([N+](=O)[O-])cc([N+](=O)[O-])c1`: the MIC in test [1] was found to be 62 µM (≈ 14.2 µg/mL); in [2] it was 125 µM (≈ 28.5 µg/mL); with Mycobacterium avium [3] it was 250 µM (≈ 57.1 µg/mL); in the test on Mycobacterium avium [4], 250 µM (≈ 57.1 µg/mL); in the test with Mycobacterium kansasii [5], 62 µM (≈ 14.2 µg/mL); in the test on Mycobacterium kansasii [6] it was 125 µM (≈ 28.5 µg/mL). In addition, the MIC in the test on Mycobacterium kansasii [7] was 250 µM (≈ 57.1 µg/mL); with Mycobacterium kansasii [8] it was 125 µM (≈ 28.5 µg/mL); against Mycobacterium kansasii [9] it was 250 µM (≈ 57.1 µg/mL); against Mycobacterium kansasii [10], 500 µM (≈ 114 µg/mL).
With `O=[N+]([O-])c1cc(CSc2nnnn2-c2ccc(Br)cc2)cc([N+](=O)[O-])c1`, the MIC in [1] was 1 µM (≈ 0.437 µg/mL); in [2], 1 µM (≈ 0.437 µg/mL); in the test with Mycobacterium avium [3], 125 µM (≈ 54.7 µg/mL); against Mycobacterium avium [4], 125 µM (≈ 54.7 µg/mL); in the test with Mycobacterium kansasii [5], 1 µM (≈ 0.437 µg/mL); with Mycobacterium kansasii [6], 2 µM (≈ 0.874 µg/mL). For the same compound, the MIC with Mycobacterium kansasii [7] came to 2 µM (≈ 0.874 µg/mL); in the test on Mycobacterium kansasii [8], 2 µM (≈ 0.874 µg/mL); against Mycobacterium kansasii [9], 4 µM (≈ 1.75 µg/mL); with Mycobacterium kansasii [10] it was 4 µM (≈ 1.75 µg/mL).

(Values after ChEMBL document CHEMBL3297661, “1-Substituted-5-[(3,5-dinitrobenzyl)sulfanyl]-1H-tetrazoles and their isosteric analogs: A new class of selective antitubercular agents active against drug-susceptible and multidrug-resistant mycobacteria” (Eur J Med Chem, 2014).)
